Among the data in ChEMBL document CHEMBL5321210, “N-adamantyl-anthranil amide derivatives: New selective ligands for the cannabinoid receptor subtype 2 (CB2R)” (Eur J Med Chem, 2023) are Activity, Ki and Emax values, retold here.

The source made the active and inactive calls. No cut-off for these calls is given here.

In assay [1] the test system is THP-1. Kind of assay: Antiinflammatory activity in human THP-1 monocytes assessed as decrease in TNF-alpha production at 10 uM incubated for 24 hrs by ELISA coupled qRT-PCR analysis relative to control. Type of assay: functional. The arrangement: scale not given: the % may be the effect or the level left. A general note: ELISA stands for enzyme-linked immunosorbent assay.

In assay [2] the test system is THP-1. Kind of assay: Antiinflammatory activity in human THP-1 monocytes assessed as decrease in IL-1beta production at 10 uM incubated for 24 hrs by ELISA coupled qRT-PCR analysis relative to control. In kind it is functional. Also on record: scale not given: the % may be the effect or the level left.
The subject of assay [3] is THP-1. Kind of assay: Antiinflammatory activity in human THP-1 monocytes assessed as decrease in IL-6 production at 10 uM incubated for 24 hrs by ELISA coupled qRT-PCR analysis relative to control. Type of assay: functional. Also on record: scale not given: the % may be the effect or the level left.
Assay [4] deals with THP-1. Kind of assay: Antiinflammatory activity in human THP-1 monocytes assessed as decrease in IFN-gamma production at 10 uM incubated for 24 hrs by ELISA coupled qRT-PCR analysis relative to control. Type of assay: functional. The arrangement: scale not given: the % may be the effect or the level left.
Assay [5] concerns THP-1. Kind of assay: Antiinflammatory activity against LPS-activated human THP-1 monocytes assessed as decrease in TNF-alpha production at 10 uM incubated for 24 hrs by ELISA coupled qRT-PCR analysis. In kind it is functional, cell-based.
The test system of assay [6] is THP-1. Kind of assay: Antiinflammatory activity against LPS-activated human THP-1 monocytes assessed as decrease in IFN-gamma production at 10 uM incubated for 24 hrs by ELISA coupled qRT-PCR analysis. In kind it is functional, cell-based.
Assay [7] concerns THP-1. Put plainly: Antiinflammatory activity against LPS-activated human THP-1 monocytes assessed as decrease in IL-1beta production at 10 uM incubated for 24 hrs by ELISA coupled qRT-PCR analysis. Type of assay: functional, cell-based.
In assay [8] the test system is THP-1. Kind of assay: Antiinflammatory activity against LPS-activated human THP-1 monocytes assessed as decrease in IL-6 production at 10 uM incubated for 24 hrs by ELISA coupled qRT-PCR analysis. In kind it is functional, cell-based.
Assay [9] deals with THP-1. Put plainly: Antiinflammatory activity against LPS-activated human THP-1 monocytes assessed as increase in IL-4 production at 10 uM incubated for 24 hrs by ELISA coupled qRT-PCR analysis. Type of assay: functional, cell-based.
Assay [10] deals with THP-1. Put plainly: Antiinflammatory against LPS-activated human THP-1 monocytes assessed as decrease in IL-1beta production at 10 uM incubated for 24 hrs in the presence of JTE907 by ELISA coupled qRT-PCR analysis. Type of assay: functional, cell-based.
Assay [11] has as its system THP-1. Kind of assay: Antiinflammatory activity in PMA-differentiated human THP-1 macrophages assessed as reduction in IFN-gamma production at 10 uM incubated for 24 hrs by ELISA coupled qRT-PCR analysis relative to control. Type of assay: functional. Also on record: scale not given: the % may be the effect or the level left.
In assay [12] the test system is THP-1. Kind of assay: Antiinflammatory activity in PMA-differentiated human THP-1 macrophages assessed as increase in IL-4 production at 10 uM incubated for 24 hrs by ELISA coupled qRT-PCR analysis. Type of assay: functional, cell-based.
Assay [13] deals with THP-1. Kind of assay: Antiinflammatory activity against LPS-activated PMA-differentiated human THP-1 macrophages assessed as decrease in TNF-alpha production at 10 uM incubated for 24 hrs by ELISA coupled qRT-PCR analysis relative to control. The arrangement: scale not given: the % may be the effect or the level left. Type of assay: functional.
The test system of assay [14] is THP-1. Kind of assay: Antiinflammatory activity in PMA-differentiated human THP-1 macrophages assessed as decrease in IL-1beta production at 10 uM incubated for 24 hrs in the presence of JTE907 by ELISA coupled qRT-PCR analysis. Type of assay: functional, cell-based.
Assay [15] deals with THP-1. Kind of assay: Antiinflammatory activity in LPS-activated PMA-differentiated human THP-1 macrophages assessed as decrease in IL-1beta production at 10 uM incubated for 24 hrs in the presence of JTE907 by ELISA coupled qRT-PCR analysis. Type of assay: functional, cell-based.
Assay [16] concerns THP-1. Kind of assay: Antiinflammatory activity against LPS-activated human THP-1 monocytes assessed as increase in IL-10 production at 10 uM incubated for 24 hrs by ELISA coupled qRT-PCR analysis. Type of assay: functional, cell-based.
Assay [17] concerns THP-1. Kind of assay: Antiinflammatory activity in human THP-1 monocytes assessed as decrease in TNF-alpha production at 10 uM incubated for 24 hrs in the presence of N-(adamantan-1-yl)-4-(pentylamino)-[1,1'-biphenyl]-3-carboxamide by ELISA coupled qRT-PCR analysis. In kind it is functional, cell-based.
For assay [18], the system named is THP-1. Kind of assay: Antiinflammatory activity against LPS-activated human THP-1 monocytes assessed as decrease in TNF-alpha production at 10 uM incubated for 24 hrs in the presence of N-(adamantan-1-yl)-4-(pentylamino)-[1,1'-biphenyl]-3-carboxamide by ELISA coupled qRT-PCR analysis. In kind it is functional, cell-based.
Assay [19] has as its system THP-1. Kind of assay: Antiinflammatory activity in PMA-differentiated human THP-1 monocytes assessed as decrease in IFN-gamma production at 10 uM incubated for 24 hrs in the presence of N-(adamantan-1-yl)-4-(pentylamino)-[1,1'-biphenyl]-3-carboxamide by ELISA coupled qRT-PCR analysis. In kind it is functional, cell-based.
The subject of assay [20] is THP-1. Put plainly: Antiinflammatory activity against LPS-activated PMA-differentiated human THP-1 macrophages assessed as decrease in IL-1beta production at 1 to 10 uM incubated for 24 hrs by ELISA coupled qRT-PCR analysis relative to control. Type of assay: functional. The arrangement: scale not given: the % may be the effect or the level left. Particulars: dose 1-10 µM.

The target of assay [21] is T1, Cannabinoid receptor 2 (Homo sapiens, UniProt P34972). Put plainly: Displacement of [3H]-CP55940 from human CB2 receptor expressed in HEK293 cell membrane assessed as inhibition constant incubated for 90 mins by radioligand competition binding assay. In kind it is cell membranes.
Assay [22] concerns the target T1, Cannabinoid receptor 2. Put plainly: Agonist activity at human CB2 receptor expressed in CHO-K1 cells assessed as inhibition of NKH-477 induced cAMP production by measuring maximal efficacy incubated for 30 mins by luminescence based analysis relative to control. In kind it is functional, cell-based. The following applies: filed as agonist. For orientation: Cyclic AMP is a second messenger, typically raised through Gs and lowered through Gi signalling.

The subject of assay [23] is THP-1. Put plainly: Antiinflammatory activity in human THP-1 monocytes assessed as decrease in IL-1beta production incubated for 24 hrs by ELISA coupled qRT-PCR analysis. Type of assay: functional, cell-based. Particulars: dose 1-10 µM.
For assay [24], the system named is THP-1. Kind of assay: Antiinflammatory activity in human THP-1 monocytes assessed as decrease in IL-6 production incubated for 24 hrs by ELISA coupled qRT-PCR analysis. Type of assay: functional, cell-based. Particulars: dose 1-10 µM.
Assay [25] has as its system THP-1. Kind of assay: Antiinflammatory activity in human THP-1 monocytes assessed as decrease in IL-6 production at 1 to 10 uM incubated for 24 hrs in the presence of JTE907 by ELISA coupled qRT-PCR analysis. Type of assay: functional, cell-based. Particulars: dose 1-10 µM.
Assay [26] relates to THP-1. Put plainly: Antiinflammatory against LPS-activated human THP-1 monocytes assessed as increase in IL-10 production at 1 to 10 uM incubated for 24 hrs in the presence of JTE907 by ELISA coupled qRT-PCR analysis. Type of assay: functional, cell-based. The following applies: dose 1-10 µM.
The test system of assay [27] is THP-1. Kind of assay: Antiinflammatory activity in PMA-differentiated human THP-1 macrophages assessed as increase in IL-4 production at 1 to 10 uM incubated for 24 hrs by ELISA coupled qRT-PCR analysis. In kind it is functional, cell-based. Particulars: dose 1-10 µM.
The subject of assay [28] is THP-1. Kind of assay: Antiinflammatory activity in PMA-differentiated human THP-1 macrophages assessed as increase in IL-10 production at 1 to 10 uM incubated for 24 hrs by ELISA coupled qRT-PCR analysis. The following applies: dose 1-10 µM. Type of assay: functional, cell-based.
The test system of assay [29] is THP-1. Kind of assay: Antiinflammatory activity in PMA-differentiated human THP-1 macrophages assessed as decrease in IL-6 production at 1 to 10 uM incubated for 24 hrs in the presence of JTE907 by ELISA coupled qRT-PCR analysis. Type of assay: functional, cell-based. Particulars: dose 1-10 µM.
For assay [30], the system named is THP-1. Kind of assay: Antiinflammatory activity in LPS-activated PMA-differentiated human THP-1 macrophages assessed as increase in IL-4 production at 1 to 10 uM incubated for 24 hrs in the presence of JTE907 by ELISA coupled qRT-PCR analysis. In kind it is functional, cell-based. Particulars: dose 1-10 µM.

T1 sequence (P34972 whole entry): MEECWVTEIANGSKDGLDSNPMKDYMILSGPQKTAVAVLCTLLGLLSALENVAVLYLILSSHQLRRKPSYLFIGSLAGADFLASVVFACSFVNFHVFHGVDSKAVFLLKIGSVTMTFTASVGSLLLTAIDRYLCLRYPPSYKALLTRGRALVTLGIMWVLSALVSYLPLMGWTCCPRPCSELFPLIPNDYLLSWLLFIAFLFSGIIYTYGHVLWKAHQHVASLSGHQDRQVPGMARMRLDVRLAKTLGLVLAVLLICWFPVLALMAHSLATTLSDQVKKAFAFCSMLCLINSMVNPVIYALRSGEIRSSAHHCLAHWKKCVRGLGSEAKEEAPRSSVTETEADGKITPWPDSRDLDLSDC

`O=C(NC1CCCCC1)c1cn(CCN2CCOCC2)c2cc(Cl)ccc2c1=O`: the Activity stood at 60% in the assay with THP-1 [1]; 60% with THP-1 [2]; 60% in the assay on THP-1 [3]; 40% in the assay on THP-1 [4]; 50% with THP-1 [11]; 70% in the assay with THP-1 [13]. Further, the outcome in the assay on THP-1 [5], with THP-1 [6], in the assay with THP-1 [7], in the assay on THP-1 [8], in the assay with THP-1 [9] and with THP-1 [12] was Active. The result with THP-1 [16] was Active. Also, the result in the assay on THP-1 [10], with THP-1 [14], in the assay on THP-1 [15], in the assay on THP-1 [17], in the assay with THP-1 [18] and in the assay on THP-1 [19] was inactive.
One may read the Ki as the equilibrium dissociation constant of an inhibitor or competing ligand from its target. By Emax is commonly meant the size of the effect at its maximum, as opposed to the concentration needed. Turning to `CCCCCNc1ccccc1C(=O)NC12CC3CC(CC(C3)C1)C2`, the Activity with THP-1 [20] is 70%; in the assay on THP-1 [23], “Dose-Dependent Effect”; with THP-1 [24] it was “Dose-Dependent Effect”; with THP-1 [1], 50%; in the assay on THP-1 [2], 50%; in the assay on THP-1 [3], 40%. Besides, in the assay with THP-1 [4], the Activity amounted to 50%. Moreover, on Cannabinoid receptor 2 [21], the inhibitory constant (Ki) was found to be 55.7 nM. Further, the maximum response (Emax) on Cannabinoid receptor 2 [22] was 77.2%. Besides, the outcome in the assay with THP-1 [5], in the assay with THP-1 [6], with THP-1 [7], with THP-1 [8], in the assay on THP-1 [9] and in the assay with THP-1 [27] was Active. The result in the assay on THP-1 [28] and with THP-1 [16] was Active. Further, the result with THP-1 [25], with THP-1 [26], with THP-1 [29] and with THP-1 [30] was inactive.
